Here are results for 4 compounds from ChEMBL document CHEMBL6109165, “Novel Triazole-Substituted Imidazo[1,2-a]Pyrimidine Compounds as cGAS inhibitors” (ACS Med Chem Lett, 2025).

Each structure is given as a SMILES string. Values after ≈ are worked out from the molar mass of the structure shown.

Series [1] in a line: Solubility of compound in FaSSIF at pH 6.5 measured after 4 hrs by HPLC-UV analysis. In kind it is physicochemical.
The target of series [2] is Cyclic GMP-AMP synthase (Homo sapiens) (UniProt Q8N884). Description: Inhibition of human recombinant cGAS (157 to 522 residues) extracted from Escherichia coli BL21(DE3)cells using GTP/ATP as substrate incubated for 1 to 2 hrs by Rapidfire 300 mass spectrometric analysis. To be noted: time 1-2 hrs.
Series [3] has the same target. Description: Inhibition of cGAS in human whole blood incubated for 6 hrs by cytometric bead array. In kind it is tissue-based.

Cyclic GMP-AMP synthase (Homo sapiens), sequence (Q8N884 whole entry, the tested form may be a part): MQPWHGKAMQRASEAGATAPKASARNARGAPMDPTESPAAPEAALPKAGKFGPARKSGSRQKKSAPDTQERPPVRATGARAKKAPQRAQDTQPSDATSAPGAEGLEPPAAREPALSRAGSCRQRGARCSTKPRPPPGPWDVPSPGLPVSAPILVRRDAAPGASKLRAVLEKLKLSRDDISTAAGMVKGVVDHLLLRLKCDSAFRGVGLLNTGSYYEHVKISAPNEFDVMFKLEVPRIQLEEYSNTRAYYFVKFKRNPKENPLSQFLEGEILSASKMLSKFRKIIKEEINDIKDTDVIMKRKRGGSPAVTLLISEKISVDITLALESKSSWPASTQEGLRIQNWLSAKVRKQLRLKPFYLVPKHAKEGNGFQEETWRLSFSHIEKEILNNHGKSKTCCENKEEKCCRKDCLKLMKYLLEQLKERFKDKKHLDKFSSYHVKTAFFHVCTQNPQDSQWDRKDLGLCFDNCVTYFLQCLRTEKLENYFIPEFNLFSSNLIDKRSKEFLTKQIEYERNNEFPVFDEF

`FC(F)(F)c1n[nH]c(-c2nc3ncccn3c2-c2c[nH]cn2)n1`: the concentration in solution in series [1] (solubility at 4 h) came to 4 µg/mL (≈ 12.5 µM).

With `Fc1cnc2nc(-c3nc(C(F)(F)F)n[nH]3)c(-c3c[nH]cn3)n2c1`, the pXC50 in series [2] was determined as 8.4; in series [3] it was 6.5. In addition, in series [1], the solubility (as a rule, the concentration that dissolves in the medium under given conditions) at 4 h was 5 µg/mL (≈ 14.8 µM).

Take `O=P(O)(O)OCn1nc(C(F)(F)F)nc1-c1nc2ncc(F)cn2c1-c1cnc[nH]1`: the pXC50 in series [2] was found to be 6.1. For the same compound, in series [1], the solubility at 4 h was > 1000 µg/mL.

As for `O=C(CCCOP(=O)(O)O)OCn1cnc(-c2c(-c3nc(C(F)(F)F)nn3COC(=O)CCCOP(=O)(O)O)nc3ncccn23)c1.O=C(O)C(F)(F)F`, the pXC50 in series [2] stood at 7.5; in series [3], 6.5. For the same compound, the solubility at 4 h in series [1] was > 1000 µg/mL.
